This note sets out measurements from patent US9493466B2, “Treatment of cancer with TOR kinase inhibitors” (Signal Pharmaceuticals, LLC, priority 2011, dated 2016).

The subject of this series is HCT-116 tumors. Briefly: HCT-116 human colorectal cancer xenograft model. The class given is in vivo, SCID mice. How it is done: HCT-116 Human Colorectal Cancer Xenograft Model. The HCT-116 cell line was obtained from American Tissue Culture Collection (ATCC) (Gaithersberg, Md.) and grown in growth medium containing McCoy's 5A medium with 2 mM L-glutamine adjusted to contain 90% and 10% of fetal bovine serum. The cells were detached from tissue culture flasks using trypsin-EDTA. After centrifugation, the cell pellets were suspended in phosphate buffered saline (PBS) and counted using a hemocytometer. Matrigel was added to the cell suspension to adjust the final volume to 2×10^6 cells/0.1 mL of 1:1 mixture of Matrigel: PBS.
Female 6-8 weeks old CB17 SCID mice were obtained from Charles River Laboratories at a body weight of 17-20 g. Mice were anesthetized with inhaled isoflurane and then inoculated with HCT-116 tumor cells subcutaneously on the right hind leg with 0.1 mL of a single cell suspension using a sterile 1 mL syringe fitted with a 26 gauge needle. Following inoculation, the mice were returned to microisolator cages. The tumors were allowed to grow to about 100 mm^3 prior to randomization. The typical number of days required for tumors to reach 100 mm^3 was 7 to 8 days. The tumor of each animal was measured and animals with tumors ranging between 100 and 150 mm^3 were included in the study. The animals were distributed randomly into various cages and the cages were randomly assigned to vehicle, positive control, or test article groups. All of the mice were tagged with metal ear tags on the right ear. A typical group consisted of 8 to 10 animals.
Compound 1 was formulated in 0.5% CMC and 0.25% Tween 80 in water (as a suspension). The formulations were homogenized using a Teflon pestle and mortar (Potter-Elvehjem tissue grinder). Between the doses, the formulated compound was stored under constant stirring using a magnetic stirrer at 4° C. in the dark. The test article and vehicle were administered by oral gavage. The positive control (rapamycin) was prepared as solution in 2% ethanol, 45% polyethyleneglycol 400, and 53% saline and administered by IP injection. Vehicle and the test article were dosed in a volume of 5 mL/kg. The positive control rapamycin was dosed in a volume of 10 mL/kg. Sterile syringes and gavage needles were used for compound administration. All the procedures including injections were done in biosafety cabinets sprayed with ethanol prior to use.
Groups of female SCID mice bearing HCT-116 tumors (n=9-10/group) were dosed orally with vehicle or Compound 1 (1 mg/kg to 50 mg/kg) twice daily (BID), once daily (QD), every second day (Q2D), every third day (Q3D) or every 5th day (Q5D) throughout the study starting when the tumor volumes reached approximately 100 mm^3. The BID dose groups were dosed with a 10 h separation between the morning and evening doses. In the positive control group, rapamycin (n=6/group) was administered via the intraperitoneal (IP) route Q3D. At the end of each study, plasma and/or tumor samples were collected.
Tumor volumes were determined prior to the initiation of treatment and were considered as the starting volumes. Thereafter, tumors were measured twice a week for the duration of the study. The long and short axes of each tumor were measured using a digital caliper in millimeters. The tumor volumes were calculated using the formula: width^2×length/2 (using long [L] and short [W] axes of tumors). The tumor volumes were expressed in cubic millimeters (mm^3). Tumor volume data are expressed as mean±SE. The difference in tumor volume between vehicle and treatment group was expressed in percent volume reduction=100−tumor volume of treated/tumor volume of control×100. Statistical analysis was done using Graphpad Prism. Comparison between multiple groups was done using one-way ANOVA with Newman-Keuls post-test with a 95% significance level.
Initial body weights were recorded prior to the initiation of treatment using a digital scale. […]

Turning to `CO[C@H]1CC[C@H](N2C(=O)CNc3ncc(-c4ccc(C(C)(C)O)nc4)nc32)CC1` [Compound 1, 7-(6-(2-hydroxypropan-2-yl)pyridin-3-yl)-1-((1r,4r)-4-methoxycyclohexyl)-3,4-dihydropyrazino-[2,3-b]pyrazin-2(1H)-one], the tumor growth inhibition result (5 mg/kg (BID), 10 mg/kg (BID), 25 mg/kg (QD and Q2D), Day 25) is “Significant (p<0.001) tumor growth inhibition”. Besides, where the note is “10 mg/kg BID”, the Body weight loss is on record as 16.9% and the tumor volume reduction entry is recorded as “Approximately 50%”. Further, the Body weight loss (25 mg/kg QD) is on record as 14%. Further, the “minimum dose required to obtain >65% tumor volume reduction compared to vehicle” value (QD oral) is listed as 25 mg/kg. In addition, where the note is “any other group”, the “change in body weight” value was “No significant change”.
